Assay results from the NIST ThermoML archive (doi:10.1021/je8008182).

Experiment: xn = mol fraction of the nth substance listed
Conditions: 101 kPa, Liquid; for viscosity: Capillary tube (Ostwald / Ubbelohde) method; for mass density: Pycnometric method

Cc1ccncc1 [4-methylpyridine] + O
Conditions | mass density [kg/m3] | viscosity [mPa·s]
298.15 K, x1 = 0.0211 | 996.2 | 1.172
298.15 K, x1 = 0.0489 | 993.6 | 1.499
298.15 K, x1 = 0.1143 | 991.3 | 2.141
298.15 K, x1 = 0.225 | 984.8 | 2.602
298.15 K, x1 = 0.3111 | 983 | 2.521
298.15 K, x1 = 0.4 | 978.9 | 2.202
298.15 K, x1 = 0.5 | 970.4 | 1.88
298.15 K, x1 = 0.6353 | 964.1 | 1.539
298.15 K, x1 = 0.75 | 961.4 | 1.379
298.15 K, x1 = 0.9 | 958.7 | 1.09
298.15 K, x1 = 1 | 955.4 | 0.8723
303.15 K, x1 = 0.0211 | 994.2 | 1.037
303.15 K, x1 = 0.0489 | 991.2 | 1.325
303.15 K, x1 = 0.1143 | 987.9 | 1.844
303.15 K, x1 = 0.225 | 981.2 | 2.238
303.15 K, x1 = 0.3111 | 978.7 | 2.164
303.15 K, x1 = 0.4 | 972.1 | 1.904
303.15 K, x1 = 0.5 | 965.4 | 1.657
303.15 K, x1 = 0.6353 | 959.8 | 1.381
303.15 K, x1 = 0.75 | 956.4 | 1.16
303.15 K, x1 = 0.9 | 953.8 | 0.9871
303.15 K, x1 = 1 | 951.1 | 0.8175
308.15 K, x1 = 0.0211 | 992.1 | 0.9037
308.15 K, x1 = 0.0489 | 988.3 | 1.165
308.15 K, x1 = 0.1143 | 984.5 | 1.58
308.15 K, x1 = 0.225 | 977.6 | 1.924
308.15 K, x1 = 0.3111 | 974.2 | 1.9
308.15 K, x1 = 0.4 | 970.7 | 1.789
308.15 K, x1 = 0.5 | 964.9 | 1.595
308.15 K, x1 = 0.6353 | 955.3 | 1.247
308.15 K, x1 = 0.75 | 950.5 | 1.068
308.15 K, x1 = 0.9 | 946 | 0.7846
308.15 K, x1 = 1 | 941.3 | 0.7774
313.15 K, x1 = 0.0211 | 990 | 0.8272
313.15 K, x1 = 0.0489 | 986 | 1.044
313.15 K, x1 = 0.1143 | 980.9 | 1.4
313.15 K, x1 = 0.225 | 973.2 | 1.682
313.15 K, x1 = 0.3111 | 969.5 | 1.649
313.15 K, x1 = 0.4 | 965.9 | 1.561
313.15 K, x1 = 0.5 | 960.5 | 1.419
313.15 K, x1 = 0.6353 | 950.5 | 1.129
313.15 K, x1 = 0.75 | 945.9 | 0.9708
313.15 K, x1 = 0.9 | 941.6 | 0.7395
313.15 K, x1 = 1 | 936.6 | 0.7368
318.15 K, x1 = 0.0211 | 987.5 | 0.7494
318.15 K, x1 = 0.0489 | 983.3 | 0.9363
318.15 K, x1 = 0.1143 | 977.1 | 1.234
318.15 K, x1 = 0.225 | 969 | 1.467
318.15 K, x1 = 0.3111 | 965 | 1.441
318.15 K, x1 = 0.4 | 961.2 | 1.365
318.15 K, x1 = 0.5 | 955.7 | 1.263
318.15 K, x1 = 0.6353 | 945.9 | 1.019
318.15 K, x1 = 0.75 | 941.4 | 0.8874
318.15 K, x1 = 0.9 | 937 | 0.6952
318.15 K, x1 = 1 | 932.1 | 0.6855
323.15 K, x1 = 0.0211 | 985 | 0.6775
323.15 K, x1 = 0.0489 | 980.3 | 0.8486
323.15 K, x1 = 0.1143 | 973.4 | 1.099
323.15 K, x1 = 0.225 | 964.8 | 1.304
323.15 K, x1 = 0.3111 | 960.7 | 1.279
323.15 K, x1 = 0.4 | 956.5 | 1.207
323.15 K, x1 = 0.5 | 951 | 1.136
323.15 K, x1 = 0.6353 | 941.4 | 0.9623
323.15 K, x1 = 0.75 | 936.7 | 0.8112
323.15 K, x1 = 0.9 | 932.5 | 0.6516
323.15 K, x1 = 1 | 927.7 | 0.6505
328.15 K, x1 = 0.0211 | 983 | 0.6136
328.15 K, x1 = 0.0489 | 977.3 | 0.762
328.15 K, x1 = 0.1143 | 969.5 | 0.9781
328.15 K, x1 = 0.225 | 960.4 | 1.147
328.15 K, x1 = 0.3111 | 956 | 1.119
328.15 K, x1 = 0.4 | 952 | 1.069
328.15 K, x1 = 0.5 | 946.3 | 1.007
328.15 K, x1 = 0.6353 | 936.7 | 0.8648
328.15 K, x1 = 0.75 | 932.1 | 0.7423
328.15 K, x1 = 0.9 | 927.8 | 0.6014
328.15 K, x1 = 1 | 923.2 | 0.5905
333.15 K, x1 = 0.0211 | 979.3 | 0.5649
333.15 K, x1 = 0.0489 | 974.1 | 0.6555
333.15 K, x1 = 0.1143 | 965.8 | 0.8941
333.15 K, x1 = 0.225 | 956.4 | 1.037
333.15 K, x1 = 0.3111 | 951.4 | 1.008
333.15 K, x1 = 0.4 | 947.5 | 0.9636
333.15 K, x1 = 0.5 | 941.6 | 0.9199
333.15 K, x1 = 0.6353 | 931.9 | 0.7522
333.15 K, x1 = 0.75 | 927.3 | 0.6899
333.15 K, x1 = 0.9 | 923 | 0.5378
333.15 K, x1 = 1 | 918.5 | 0.5329
338.15 K, x1 = 0.0211 | 976.3 | 0.5403
338.15 K, x1 = 0.0489 | 970.8 | 0.6149
338.15 K, x1 = 0.1143 | 961.7 | 0.8036
338.15 K, x1 = 0.225 | 952.2 | 0.9466
338.15 K, x1 = 0.3111 | 946.9 | 0.9064
338.15 K, x1 = 0.4 | 942.8 | 0.8656
338.15 K, x1 = 0.5 | 936.7 | 0.8403
338.15 K, x1 = 0.6353 | 927.5 | 0.6948
338.15 K, x1 = 0.75 | 922.6 | 0.641
338.15 K, x1 = 0.9 | 918.5 | 0.4964
338.15 K, x1 = 1 | 914 | 0.4815
